Experimental findings from ChEMBL document CHEMBL4043168, “The design and SAR of a novel series of 2-aminopyridine based LRRK2 inhibitors” (Bioorg Med Chem Lett, 2017) are described below.

Molecules are shown by their SMILES.

The target of series [1] is Serine/threonine-protein kinase WNK1 (Homo sapiens) (UniProt Q9H4A3). Nature of the series: Inhibition of Wnk1 conserved Lys2 (DLKCDNIFITGPTGSVK) in human PBMC at 1 uM.
In series [2] the target is Dual specificity mitogen-activated protein kinase kinase 2 (Homo sapiens) (UniProt P36507). Nature of the series: Inhibition of MAP2K2 conserved Lys2 (IMHRDVKPSNILVNSR) in human PBMC at 0.1 uM.
Chain of Dual specificity mitogen-activated protein kinase kinase 2 (Homo sapiens) (P36507 whole entry): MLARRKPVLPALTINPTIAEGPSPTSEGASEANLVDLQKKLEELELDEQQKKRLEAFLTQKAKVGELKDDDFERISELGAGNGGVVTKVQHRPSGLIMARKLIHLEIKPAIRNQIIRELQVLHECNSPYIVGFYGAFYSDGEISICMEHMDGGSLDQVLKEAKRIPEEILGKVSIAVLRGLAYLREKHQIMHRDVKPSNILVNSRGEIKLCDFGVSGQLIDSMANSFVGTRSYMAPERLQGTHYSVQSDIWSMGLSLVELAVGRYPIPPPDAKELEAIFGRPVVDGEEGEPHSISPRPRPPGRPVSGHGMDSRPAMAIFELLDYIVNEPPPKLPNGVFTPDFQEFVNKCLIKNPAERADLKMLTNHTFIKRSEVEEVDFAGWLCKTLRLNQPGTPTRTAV
Series [3] deals with Cyclin-dependent kinase 17 (Homo sapiens) (UniProt Q00537). The experiment in a line: Inhibition of PCTAIRE2 conserved Lys2 (DLKPQNLLINEK) in human PBMC at 0.1 uM.
Chain of Cyclin-dependent kinase 17 (Homo sapiens) (Q00537 whole entry, looked up): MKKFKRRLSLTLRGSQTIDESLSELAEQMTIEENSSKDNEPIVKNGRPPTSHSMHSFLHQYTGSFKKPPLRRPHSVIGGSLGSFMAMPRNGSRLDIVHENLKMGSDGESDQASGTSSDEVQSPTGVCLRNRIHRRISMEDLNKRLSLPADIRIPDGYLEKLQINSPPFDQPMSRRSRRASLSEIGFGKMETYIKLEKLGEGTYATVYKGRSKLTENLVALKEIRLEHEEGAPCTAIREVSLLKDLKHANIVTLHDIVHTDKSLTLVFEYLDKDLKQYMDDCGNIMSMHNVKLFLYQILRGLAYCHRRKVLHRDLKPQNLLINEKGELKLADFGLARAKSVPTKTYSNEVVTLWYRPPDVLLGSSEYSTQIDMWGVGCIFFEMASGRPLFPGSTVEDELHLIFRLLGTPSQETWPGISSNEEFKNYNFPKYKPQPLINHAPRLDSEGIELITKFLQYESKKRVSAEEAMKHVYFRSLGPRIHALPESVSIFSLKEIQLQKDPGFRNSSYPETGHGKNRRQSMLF
Series [4] in a line: Inhibition of GCK conserved Lys1 (DTVTSELAAVKIVK) in human PBMC at 1 uM.
The target of series [5] is T1, Serine/threonine-protein kinase 3 (Homo sapiens) (UniProt Q13188).
T1 sequence (whole entry): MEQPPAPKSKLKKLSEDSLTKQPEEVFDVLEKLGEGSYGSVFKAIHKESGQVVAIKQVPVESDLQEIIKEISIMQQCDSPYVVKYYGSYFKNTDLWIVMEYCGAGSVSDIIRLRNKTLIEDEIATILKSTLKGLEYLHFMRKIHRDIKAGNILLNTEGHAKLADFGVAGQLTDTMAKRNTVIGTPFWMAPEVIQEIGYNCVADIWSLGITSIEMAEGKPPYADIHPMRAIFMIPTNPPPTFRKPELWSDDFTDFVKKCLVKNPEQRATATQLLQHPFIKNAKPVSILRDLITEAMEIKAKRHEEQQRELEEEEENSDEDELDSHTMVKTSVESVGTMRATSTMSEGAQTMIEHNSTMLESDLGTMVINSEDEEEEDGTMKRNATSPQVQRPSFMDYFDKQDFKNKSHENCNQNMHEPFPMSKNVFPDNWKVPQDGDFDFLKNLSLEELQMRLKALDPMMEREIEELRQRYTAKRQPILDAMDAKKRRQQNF
Nature of the series: Inhibition of MST2 conserved Lys1 (ESGQVVAIKQVPVESDLQEIIK) in human PBMC at 0.1 uM.

The target of series [6] is Tyrosine-protein kinase ABL1 (Homo sapiens) (UniProt P00519). Nature of the series: Inhibition of ABL labeling at activation Loop (LMTGDTYTAHAGAKFPIK) in human PBMC at 1 uM.
Chain of Tyrosine-protein kinase ABL1 (Homo sapiens) (P00519 whole entry): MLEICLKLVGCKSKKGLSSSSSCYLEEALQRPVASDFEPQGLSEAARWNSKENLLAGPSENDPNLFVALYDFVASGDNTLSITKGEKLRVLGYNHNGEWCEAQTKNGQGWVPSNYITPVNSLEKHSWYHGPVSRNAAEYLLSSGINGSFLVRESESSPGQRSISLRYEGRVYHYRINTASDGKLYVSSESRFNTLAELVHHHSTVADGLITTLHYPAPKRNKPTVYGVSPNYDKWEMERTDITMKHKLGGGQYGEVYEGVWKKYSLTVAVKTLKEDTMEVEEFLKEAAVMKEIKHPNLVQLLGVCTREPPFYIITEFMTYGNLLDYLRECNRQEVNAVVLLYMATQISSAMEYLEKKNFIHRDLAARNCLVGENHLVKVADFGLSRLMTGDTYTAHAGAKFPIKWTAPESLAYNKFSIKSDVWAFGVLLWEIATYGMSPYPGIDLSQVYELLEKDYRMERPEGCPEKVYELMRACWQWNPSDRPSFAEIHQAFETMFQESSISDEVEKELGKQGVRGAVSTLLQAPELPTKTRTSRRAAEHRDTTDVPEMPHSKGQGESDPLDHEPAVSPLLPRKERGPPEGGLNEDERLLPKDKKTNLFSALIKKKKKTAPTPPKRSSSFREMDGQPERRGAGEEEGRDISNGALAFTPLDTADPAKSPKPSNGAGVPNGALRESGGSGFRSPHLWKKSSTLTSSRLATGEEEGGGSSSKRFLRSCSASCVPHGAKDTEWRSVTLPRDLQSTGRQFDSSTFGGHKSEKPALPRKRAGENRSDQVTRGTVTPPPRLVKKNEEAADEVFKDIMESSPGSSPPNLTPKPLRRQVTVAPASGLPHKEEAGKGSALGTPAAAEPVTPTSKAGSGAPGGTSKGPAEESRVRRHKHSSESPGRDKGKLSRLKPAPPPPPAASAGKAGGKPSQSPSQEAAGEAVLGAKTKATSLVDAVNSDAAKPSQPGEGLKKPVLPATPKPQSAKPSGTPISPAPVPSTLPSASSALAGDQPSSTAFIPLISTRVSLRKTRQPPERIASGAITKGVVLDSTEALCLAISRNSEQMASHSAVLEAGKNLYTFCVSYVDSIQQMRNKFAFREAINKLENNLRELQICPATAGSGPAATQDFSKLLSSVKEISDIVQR
In series [7] the target is Mitogen-activated protein kinase kinase kinase 4 (Homo sapiens) (UniProt Q9Y6R4). The experiment in a line: Inhibition of MAP3K4 conserved Lys2 (DIKGANIFLTSSGLIK) in human PBMC at 1 uM.
Chain of Mitogen-activated protein kinase kinase kinase 4 (Homo sapiens) (Q9Y6R4 whole entry, the tested form may be a part): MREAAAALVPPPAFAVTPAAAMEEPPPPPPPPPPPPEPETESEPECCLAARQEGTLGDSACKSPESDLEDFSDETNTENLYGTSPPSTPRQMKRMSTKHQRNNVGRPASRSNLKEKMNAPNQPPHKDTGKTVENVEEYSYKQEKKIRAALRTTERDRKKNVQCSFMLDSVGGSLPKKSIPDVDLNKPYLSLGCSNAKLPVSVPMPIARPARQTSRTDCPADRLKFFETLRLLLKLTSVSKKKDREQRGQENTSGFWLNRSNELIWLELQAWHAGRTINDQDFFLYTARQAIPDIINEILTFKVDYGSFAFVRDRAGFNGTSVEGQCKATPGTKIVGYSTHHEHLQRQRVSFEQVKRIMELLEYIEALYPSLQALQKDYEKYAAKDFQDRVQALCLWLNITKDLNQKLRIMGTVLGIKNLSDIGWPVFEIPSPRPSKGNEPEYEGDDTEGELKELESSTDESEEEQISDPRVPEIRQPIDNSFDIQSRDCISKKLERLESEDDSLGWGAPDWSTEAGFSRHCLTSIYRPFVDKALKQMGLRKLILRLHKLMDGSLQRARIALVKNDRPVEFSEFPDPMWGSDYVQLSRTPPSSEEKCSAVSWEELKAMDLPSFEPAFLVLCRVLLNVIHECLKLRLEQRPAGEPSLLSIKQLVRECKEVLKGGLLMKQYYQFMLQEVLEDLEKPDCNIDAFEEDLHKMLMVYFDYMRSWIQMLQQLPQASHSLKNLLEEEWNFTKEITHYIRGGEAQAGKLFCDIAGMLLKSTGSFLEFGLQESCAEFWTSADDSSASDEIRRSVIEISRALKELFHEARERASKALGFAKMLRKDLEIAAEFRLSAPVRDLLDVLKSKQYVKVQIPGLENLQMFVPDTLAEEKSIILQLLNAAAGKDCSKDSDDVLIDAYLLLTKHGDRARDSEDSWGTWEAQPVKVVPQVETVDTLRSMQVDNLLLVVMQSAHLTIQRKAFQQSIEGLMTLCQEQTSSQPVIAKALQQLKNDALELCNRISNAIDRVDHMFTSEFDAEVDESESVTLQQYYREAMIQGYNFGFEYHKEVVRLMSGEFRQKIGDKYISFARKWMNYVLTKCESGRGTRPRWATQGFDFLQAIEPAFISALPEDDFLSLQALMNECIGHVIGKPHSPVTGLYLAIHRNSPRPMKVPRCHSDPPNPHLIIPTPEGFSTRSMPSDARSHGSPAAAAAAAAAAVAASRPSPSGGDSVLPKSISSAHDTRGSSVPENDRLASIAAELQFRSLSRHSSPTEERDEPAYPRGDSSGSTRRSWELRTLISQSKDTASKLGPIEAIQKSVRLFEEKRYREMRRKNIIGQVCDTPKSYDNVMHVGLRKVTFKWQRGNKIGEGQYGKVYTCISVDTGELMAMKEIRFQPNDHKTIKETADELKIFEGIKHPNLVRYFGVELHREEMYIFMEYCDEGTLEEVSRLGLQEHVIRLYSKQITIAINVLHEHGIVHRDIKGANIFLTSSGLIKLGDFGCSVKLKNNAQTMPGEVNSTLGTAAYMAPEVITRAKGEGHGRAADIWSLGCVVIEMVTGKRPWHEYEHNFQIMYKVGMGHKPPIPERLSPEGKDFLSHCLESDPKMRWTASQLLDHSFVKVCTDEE
For series [8], the target named is Ribosomal protein S6 kinase alpha-1 (Homo sapiens) (UniProt Q15418). The experiment in a line: Inhibition of RSK1 domain2 conserved Lys2 (DLKPSNILYVDESGNPECLR) in human PBMC at 0.1 uM.
For series [9], the target named is Calcium/calmodulin-dependent protein kinase type II subunit delta (Homo sapiens) (UniProt Q13557). The experiment in a line: Inhibition of CaMK2d labeling at conserved Lys2 (DLKPENLLLASK) in human PBMC at 0.1 uM.
A short description of series [10]: Intrinsic clearance in rat liver microsomes. It is filed as ADME, microsome. As to conditions: read-out: CLH (converted). A general note: Liver microsomes are a subcellular fraction often used to study metabolism.
Series [11] deals with Mitogen-activated protein kinase 14 (Homo sapiens) (UniProt Q16539). The experiment in a line: Inhibition of p38a (QELNKTIWEVPER) in human PBMC at 0.1 uM.
Series [12] concerns the target T2, Mitogen-activated protein kinase kinase kinase 5 (Homo sapiens) (UniProt Q99683).
T2 sequence (whole entry): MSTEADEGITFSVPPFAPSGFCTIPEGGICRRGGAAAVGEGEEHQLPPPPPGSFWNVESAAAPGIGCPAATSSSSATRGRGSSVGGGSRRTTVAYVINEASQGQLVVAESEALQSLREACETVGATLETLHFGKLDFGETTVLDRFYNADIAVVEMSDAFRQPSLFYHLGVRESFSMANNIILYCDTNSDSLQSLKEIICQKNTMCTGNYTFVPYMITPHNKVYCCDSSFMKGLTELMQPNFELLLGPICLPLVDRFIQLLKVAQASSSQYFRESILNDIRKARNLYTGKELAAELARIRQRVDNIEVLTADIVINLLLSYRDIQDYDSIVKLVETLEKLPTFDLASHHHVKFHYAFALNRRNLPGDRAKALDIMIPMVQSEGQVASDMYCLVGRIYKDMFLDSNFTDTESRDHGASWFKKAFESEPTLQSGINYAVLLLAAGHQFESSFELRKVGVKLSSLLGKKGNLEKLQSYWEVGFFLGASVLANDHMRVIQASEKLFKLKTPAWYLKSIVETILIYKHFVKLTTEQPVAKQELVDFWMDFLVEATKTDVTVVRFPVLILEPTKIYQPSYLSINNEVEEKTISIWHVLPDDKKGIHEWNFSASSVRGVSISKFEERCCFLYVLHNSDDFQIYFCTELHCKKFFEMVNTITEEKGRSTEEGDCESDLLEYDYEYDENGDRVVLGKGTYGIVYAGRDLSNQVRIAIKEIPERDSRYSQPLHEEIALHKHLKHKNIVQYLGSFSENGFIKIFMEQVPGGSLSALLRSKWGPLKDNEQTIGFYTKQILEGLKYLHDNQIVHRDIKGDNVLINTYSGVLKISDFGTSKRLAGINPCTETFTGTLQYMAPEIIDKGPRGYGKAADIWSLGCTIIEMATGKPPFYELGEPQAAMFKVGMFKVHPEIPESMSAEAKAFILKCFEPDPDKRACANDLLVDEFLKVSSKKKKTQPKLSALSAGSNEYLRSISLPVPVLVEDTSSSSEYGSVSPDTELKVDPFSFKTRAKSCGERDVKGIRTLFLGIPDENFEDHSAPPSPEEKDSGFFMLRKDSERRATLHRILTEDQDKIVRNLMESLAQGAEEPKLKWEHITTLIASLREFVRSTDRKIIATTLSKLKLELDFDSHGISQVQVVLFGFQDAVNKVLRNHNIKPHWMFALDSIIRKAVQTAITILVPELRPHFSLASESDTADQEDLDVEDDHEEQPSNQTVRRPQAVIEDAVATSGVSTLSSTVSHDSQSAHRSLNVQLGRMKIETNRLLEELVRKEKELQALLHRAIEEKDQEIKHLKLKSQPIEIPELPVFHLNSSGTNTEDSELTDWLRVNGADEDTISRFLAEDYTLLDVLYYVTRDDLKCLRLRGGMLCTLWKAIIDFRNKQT
Nature of the series: Inhibition of MAP3K5 conserved Lys2 (DIKGDNVLINTYSGVLK) in human PBMC at 0.1 uM.

For series [13], the target named is Tyrosine-protein kinase JAK1 (Homo sapiens) (UniProt P23458). The experiment in a line: Inhibition of JAK1 domain1 (QLASALSYLEDKDLVHGNVCTKNLLLAR) in human PBMC at 1 uM.
Chain of Tyrosine-protein kinase JAK1 (Homo sapiens) (P23458 whole entry, the tested form may be a part): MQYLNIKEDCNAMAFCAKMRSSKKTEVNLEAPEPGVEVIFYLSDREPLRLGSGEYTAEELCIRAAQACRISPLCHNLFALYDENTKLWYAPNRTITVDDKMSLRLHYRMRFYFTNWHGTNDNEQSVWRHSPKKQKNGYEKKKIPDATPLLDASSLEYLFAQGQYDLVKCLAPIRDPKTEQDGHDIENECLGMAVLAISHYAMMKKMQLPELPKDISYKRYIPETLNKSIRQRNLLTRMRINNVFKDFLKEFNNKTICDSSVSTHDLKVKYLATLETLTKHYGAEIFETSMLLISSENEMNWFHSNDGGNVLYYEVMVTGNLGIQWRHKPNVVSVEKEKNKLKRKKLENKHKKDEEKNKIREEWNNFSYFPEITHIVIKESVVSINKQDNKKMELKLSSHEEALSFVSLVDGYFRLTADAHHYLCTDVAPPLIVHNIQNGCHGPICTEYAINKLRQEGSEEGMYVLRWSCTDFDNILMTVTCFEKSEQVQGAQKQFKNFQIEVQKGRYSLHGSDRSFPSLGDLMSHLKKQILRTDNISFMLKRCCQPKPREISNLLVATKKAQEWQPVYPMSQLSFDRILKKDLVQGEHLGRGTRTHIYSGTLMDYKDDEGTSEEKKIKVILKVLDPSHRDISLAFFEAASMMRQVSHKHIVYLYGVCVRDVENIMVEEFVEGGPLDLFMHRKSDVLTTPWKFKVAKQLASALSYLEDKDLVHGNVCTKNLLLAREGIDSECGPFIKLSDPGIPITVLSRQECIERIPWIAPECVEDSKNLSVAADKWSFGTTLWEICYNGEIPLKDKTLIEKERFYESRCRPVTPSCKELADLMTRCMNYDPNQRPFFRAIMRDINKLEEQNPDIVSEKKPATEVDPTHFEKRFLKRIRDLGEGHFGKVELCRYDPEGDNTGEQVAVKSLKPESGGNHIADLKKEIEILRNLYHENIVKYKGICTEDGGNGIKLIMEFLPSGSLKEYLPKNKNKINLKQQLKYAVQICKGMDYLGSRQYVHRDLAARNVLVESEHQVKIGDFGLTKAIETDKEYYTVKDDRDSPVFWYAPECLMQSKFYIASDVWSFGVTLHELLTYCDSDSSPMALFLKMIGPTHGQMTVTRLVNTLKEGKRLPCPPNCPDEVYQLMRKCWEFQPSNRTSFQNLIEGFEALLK
Series [14] addresses Kinase suppressor of Ras 2 (Homo sapiens) (UniProt Q6VAB6). Nature of the series: Inhibition of KSR2 activation Loop (SKNVFYDNGK) in human PBMC at 0.1 uM.

Consider `CC(C)n1cc(-c2cc(-c3ccc(CN4CCOCC4)cc3)cnc2N)nn1`, for which the inhibition – broadly, the change of the read-out against control, counted positive when it falls – is 2.2% in [1]; -5.6% in series [2]; 21.7% in [3]; 0.5% in [4]; 7.7% in series [5]; 34.8% in [6]. For the same molecule, the inhibition is -0.5% in series [7]; 8.3% in series [8]; -7.5% in [9]; 8.2% in series [11]; 11% in series [12]; 1.8% in series [13]. The inhibition in series [14] came out at 20.4%. Moreover, the CLint scaled in series [10] is 157 mL/min/kg.
